Laboratory results from US20260207713A1, “Drug Combination Kit for Controlling Blood Sugar” (Ningbo Y Biotechology lnc., priority 2023, published 2026).

Tests used:
[1] = system: diabetic rat models; experiment: Type II diabetes rat model (high-sugar, high-fat diet plus STZ); fasting blood sugar and glycated hemoglobin after 3 months of drug intervention; format: in vivo, SPD rats
Experimental: A study in Aging (Albany NY). 2021 Mar. […] The inventor opted for 12-month-old male SPD rats (weighing between 540 grams and 560 grams) for the experiment. These rats were fed a high-sugar, high-fat diet (10% lard, 2.5% cholesterol, 1.0% pig bile salt, 20% sucrose, and 66.5% conventional feed). […] The diet continued for an additional 12 weeks. Finally, rats with a fasting blood sugar level exceeding 10 mmol/L were selected, and their fasting blood sugar levels were measured for 3 consecutive times every 3 days. Rats maintaining stable fasting blood sugar levels above 10 mmol/L were chosen. Each group comprised 5 animals, and a standard diet (18.0% fat, 24.0% protein, and 58.0% carbohydrates) was administered during the drug intervention period. Given that the lifespan of glycated hemoglobin is approximately 3 months, the duration of drug intervention was established at 3 months to ensure precise measurement of post-intervention glycated hemoglobin.
These ingredients are mixed evenly with unsaturated fish oil, and then encapsulated in ultra-long type No. 9 enteric-coated capsules. […] The ketoester was diluted with flavored water to achieve a 50% concentration, while the control solution consisted of flavored water only. The method of gastric gavage was employed.
After three months of medication, blood was drawn from the tail to measure fasting blood sugar and glycated hemoglobin, with results expressed as the mean.
Feed 50% ketoester solution three times daily: at 8 am, 12 pm, and 5 pm. The total daily intake was selected as 3 g/kg/day or 5 g/kg/day, as referenced in BMC Anesthesiol. 2023; 23:p43. […] The subsequent experiment utilized 50% ketoester solution at 3 g/day/kg.

[2] = cited from earlier work
[3] = system: patients with type II diabetes; conditions: type II diabetes patients on chemical hypoglycemic drugs, no insulin injection, 28 consecutive days; cited from earlier work
[4] = 50% ketoester solution 3 g/kg/day, three times daily by gavage, diabetic rats
[5] = 50% ketoester solution 5 g/kg/day, three times daily by gavage, diabetic rats
[6] = 20 mg/kg once a day in the morning, diabetic rats

C[C@@H](O)CCOC(=O)C[C@@H](C)O [ketoester, (R)-3-hydroxybutyrate-(R)-1,3-butanediol ester]
Difference in effects on fasting blood sugar and glycated hemoglobin between dosages ([1]; 3 g/kg/day versus 5 g/kg/day): no significant difference
Fasting blood sugar measurement after three months [1, 4]: 7.15 ± 0.51 mmol/L
Glycated hemoglobin measurement after three months [1, 4]: 6.82 +/− 0.34%
Fasting blood sugar measurement after three months [1, 5]: 6.90 ± 0.41 mmol/L
Glycated hemoglobin measurement after three months [1, 5]: 6.75 +/− 0.42%
Duration of ketogenic effect ([2]; oral solution): 4 to 6 h
Ketogenic effect (level reached) ([2]; oral solution): approximately 3 mM
Reduction in fructosamine [3]: 13.4%
Reduction in glycated hemoglobin [3]: 8.3%

CC(O)CC(=O)[O-].[Na+] (stereo not drawn) [sodium 3-hydroxybutyrate, reference compound]
Ketogenic effects ([2]; early exogenous ketone): poor ketogenic effects

Cc1ccc([C@@H]2O[C@H](CO)[C@@H](O)[C@H](O)[C@H]2O)cc1Cc1ccc(-c2ccc(F)cc2)s1 [Canagliflozin, canagliflozin, reference compound]
Fasting blood sugar after three months [1, 6]: 6.38 ± 0.41 mmol/L
Glycated hemoglobin measurement after three months [1, 6]: 5.63 +/− 0.42%
